The source of these data is ChEMBL document CHEMBL1139674 (Bioorg Med Chem Lett, 2006).

Structures are written as SMILES. Some results are limits rather than exact numbers.

Data set [1] can be described thus: Cytotoxicity against human BC cells. In kind it is cell-based.
Data set [2] is described as follows: Cytotoxicity against human NCI-H187 cells. In kind it is cell-based.
In data set [3] the target is T1, Tyrosinase (Agaricus bisporus, UniProt O42713).
T1 sequence (O42713 whole entry): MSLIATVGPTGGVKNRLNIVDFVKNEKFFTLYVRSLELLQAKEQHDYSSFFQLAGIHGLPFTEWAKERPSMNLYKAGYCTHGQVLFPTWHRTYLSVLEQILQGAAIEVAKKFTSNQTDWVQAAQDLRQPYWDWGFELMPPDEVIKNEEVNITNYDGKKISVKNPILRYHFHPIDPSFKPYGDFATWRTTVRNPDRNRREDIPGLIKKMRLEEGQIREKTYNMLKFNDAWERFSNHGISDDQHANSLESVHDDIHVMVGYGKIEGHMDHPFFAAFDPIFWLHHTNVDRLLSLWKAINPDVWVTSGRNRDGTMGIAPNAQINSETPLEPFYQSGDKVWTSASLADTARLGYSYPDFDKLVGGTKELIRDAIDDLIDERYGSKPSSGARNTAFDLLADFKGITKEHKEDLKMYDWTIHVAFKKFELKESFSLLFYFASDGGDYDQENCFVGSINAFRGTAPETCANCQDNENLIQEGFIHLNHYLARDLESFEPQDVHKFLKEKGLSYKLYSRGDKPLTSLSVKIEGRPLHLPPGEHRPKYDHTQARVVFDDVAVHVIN
Nature of the data set: Inhibition of mushroom tyrosinase at 9.2 uM.

Data set [4] deals with T1, Tyrosinase. The data set is described as follows: Inhibition of mushroom tyrosinase at 18.4 uM.
A short description of data set [5]: Cytotoxicity against human NCI-H187 cells at 20 ug/ml. In kind it is cell-based.
Data set [6] can be described thus: Cytotoxicity against human BC cells at 20 ug/ml. In kind it is cell-based.
Data set [7] has as its system KB. Nature of the data set: Cytotoxicity against human KB cells at 20 ug/ml. In kind it is cell-based.
The test system of data set [8] is KB. The data set is described as follows: Cytotoxicity against human KB cells. In kind it is cell-based.
Data set [9] has as its target Tyrosinase (Agaricus bisporus). Nature of the data set: Inhibition of tyrosinase.
Data set [10] has as its target T1, Tyrosinase. Nature of the data set: Inhibition of mushroom tyrosinase at 2.4 uM.
Data set [11] addresses T1, Tyrosinase. Nature of the data set: Inhibition of mushroom tyrosinase at 1.2 uM.

One may read the IC50 as the point on the concentration scale where inhibition reaches its midpoint. Low readings indicate greater potency in that assay, high ones weaker potency in that assay. As to `COc1cccc2c1C(=O)c1c(O)c3c(c(O)c1C2=O)C[C@@](O)(C(=O)CO)C[C@@H]3O[C@H]1C[C@H](N)[C@H](O)[C@H](C)O1` [DOXORUBICIN], the results for the half-inhibitory concentration (IC50) in data set [1] and in data set [2] were 0.5 µM and 0.1 µM, respectively.
In general, Ki refers to a dissociation constant, usually derived from enzyme kinetics or from competition with a known ligand. A lower Ki goes with tighter binding. In the case of `Oc1cc(O)cc(/C=C/c2ccc(O)cc2O)c1` [OXYRESVERATROL], the results for the Ki at Tyrosinase [3] and on Tyrosinase [4] were 22 µM and 28 µM, respectively. For the same compound, the Activity (in data set [5]; in data set [6]; in the data set with KB [7]) was under 50% throughout.
Turning to `COc1cc(O)cc(/C=C/c2ccc(O)cc2OC)c1`, the concentration for half-maximal inhibition (IC50) was 10.8 µM in [1], 10.9 µM in [2], 5.5 µM with KB [8] and over 100 µM in data set [9].
On to `COc1cc(O)ccc1/C=C/c1cc(O)cc(O)c1`, for which the IC50 in [1] was 66.6 µM; in [9], over 100 µM. Moreover, the Activity (in [5]; with KB [7]) was under 50% in each case.
For the compound `COc1cc(/C=C/c2ccc(OC)cc2OC)cc(OC)c1`, the IC50 in [1] was found to be 5.6 µM; in data set [2], 8 µM; in the data set on KB [8], 8.6 µM.
For `COc1cc(/C=C\c2ccc(OC)cc2OC)cc(OC)c1` the same measures were 1 µM, 0.3 µM and 0.3 µM.
Take `COc1cc(CCc2ccc(OC)cc2OC)cc(OC)c1`: the Activity (in data set [5]; in data set [6]; in the data set on KB [7]) was under 50% in each case. In data set [9], this compound had an IC50 of over 100 µM.
`Oc1cc(O)cc(CCc2ccc(O)cc2O)c1`: the results for the Ki on Tyrosinase [10] and on Tyrosinase [11] were 5.6 µM and 4.8 µM, respectively. The Activity (in [5]; in data set [6]; in the data set with KB [7]) was under 50% each time. The compound further registered a half-inhibitory concentration (IC50) in [9] of 1.6 µM.
Regarding `Cc1c2ccncc2c(C)c2c1[nH]c1ccccc12` [ELLIPTECINE], the results for the IC50 (in [1]; in data set [2]; in the data set on KB [8]) were 2.7 µM, 1.9 µM and 2.4 µM, respectively.
Regarding `COc1cc(O)cc(/C=C/c2ccc(OC)cc2O)c1`, the IC50 in data set [1] is 13.9 µM; in data set [2] it was 33.5 µM; in the data set with KB [8], 16.5 µM; in data set [9], over 100 µM.
